In patent publication US20230416232A1, “PYRIMIDINE COMPOUNDS, COMPOSITIONS, AND MEDICINAL APPLICATIONS THEREOF” (Blueprint Medicines Corporation, priority 2020, published 2023) one finds GI50 and IC50 data, which are given here for 15 compounds.

Holding throughout (assay type): cell-based
Test [1] deals with EGFR(D770_N771insSVD) expressing Ba/F3 stable cell line (Homo sapiens, UniProt P00533, DUP768-770, cells depend on it). In words: Cellular proliferation (Alamar Blue) assay, EGFR(D770_N771insSVD) Ba/F3. In a few lines: (§1)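 Engineered Ba/F3 lines in RPMI with 10% FBS and A431 cells in DMEM with 10% FBS are plated overnight, exposed to compound dilutions (10-0.0005 μM final) for 72 hours, and then scored by a 3-hour Alamar Blue incubation.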
Sequence of EGFR(D770_N771insSVD) expressing Ba/F3 stable cell line (P00533 with tags, fused parts or gaps DUP768-770): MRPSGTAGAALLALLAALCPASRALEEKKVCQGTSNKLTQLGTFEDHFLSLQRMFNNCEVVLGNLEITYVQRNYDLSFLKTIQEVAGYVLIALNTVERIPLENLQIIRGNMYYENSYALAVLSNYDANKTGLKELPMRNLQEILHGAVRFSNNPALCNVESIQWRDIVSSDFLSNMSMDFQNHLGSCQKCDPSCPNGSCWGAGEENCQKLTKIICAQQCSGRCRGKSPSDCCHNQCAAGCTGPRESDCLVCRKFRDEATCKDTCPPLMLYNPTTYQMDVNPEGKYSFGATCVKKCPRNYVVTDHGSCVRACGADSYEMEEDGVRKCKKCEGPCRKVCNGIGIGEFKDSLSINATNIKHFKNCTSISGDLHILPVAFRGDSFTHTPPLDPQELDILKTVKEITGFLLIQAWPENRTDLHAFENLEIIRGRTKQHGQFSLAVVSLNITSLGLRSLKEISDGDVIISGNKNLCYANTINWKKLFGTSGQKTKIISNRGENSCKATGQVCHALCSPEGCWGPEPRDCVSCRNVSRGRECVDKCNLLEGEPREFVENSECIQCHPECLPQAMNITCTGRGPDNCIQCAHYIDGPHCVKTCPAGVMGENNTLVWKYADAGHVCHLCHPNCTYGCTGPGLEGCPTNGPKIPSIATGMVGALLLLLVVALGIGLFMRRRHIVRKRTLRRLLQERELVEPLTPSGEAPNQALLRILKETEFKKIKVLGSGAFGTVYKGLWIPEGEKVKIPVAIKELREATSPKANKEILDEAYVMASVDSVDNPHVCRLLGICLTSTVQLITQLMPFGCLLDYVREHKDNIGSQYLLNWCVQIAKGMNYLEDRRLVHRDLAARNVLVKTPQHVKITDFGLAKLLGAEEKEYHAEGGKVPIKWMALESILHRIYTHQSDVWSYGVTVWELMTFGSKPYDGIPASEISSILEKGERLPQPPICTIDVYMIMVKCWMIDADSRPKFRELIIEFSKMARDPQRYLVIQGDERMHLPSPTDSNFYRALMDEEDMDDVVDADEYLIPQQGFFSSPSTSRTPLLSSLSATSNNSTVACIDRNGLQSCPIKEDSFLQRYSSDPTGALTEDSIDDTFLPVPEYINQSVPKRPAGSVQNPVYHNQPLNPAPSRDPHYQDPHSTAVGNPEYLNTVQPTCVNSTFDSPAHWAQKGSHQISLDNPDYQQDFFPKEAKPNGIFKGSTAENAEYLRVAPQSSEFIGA
(Resazurin is reduced to fluorescent resorufin, in cell work by metabolically active cells.)

Test [2] addresses EGFR (A767_dupASV) expressing Ba/F3 stable cell line (Homo sapiens, UniProt P00533, DUP767-769, cells depend on it). Briefly: Cellular proliferation (Alamar Blue) assay, EGFR (A767_dupASV) Ba/F3. In short, it runs like this:
as §1

The subject of test [3] is A431 cells. In words: Cellular proliferation (Alamar Blue) assay, A431 cells. Particulars: Homo sapiens, A-431, 72 h, read-out: A431 IC50. In short, it runs like this:
as §1

Test [4] concerns the target EGFR (H773insNPH) expressing Ba/F3 stable cell line (Homo sapiens, UniProt P00533, DUP771-773, cells depend on it). In words: Cellular proliferation (Alamar Blue) assay, EGFR (H773insNPH) Ba/F3. In a few lines: as §1
Test [5] deals with HER2 (A775_G776insYVMA) expressing Ba/F3 stable cell line (Homo sapiens, UniProt P04626, DUP772-775, cells depend on it). In words: Cellular proliferation (Alamar Blue) assay, HER2 (A775_G776insYVMA) Ba/F3. The note with it: read-out: YVMA IC50. In short, it runs like this:
as §1

[6] abbreviates: HER2 (A775_G776insYVMA) Ba/F3 cells, 72 hr, Alamar Blue.

Where two headings read alike, the source gives them in different places.

Sequence of EGFR (A767_dupASV) expressing Ba/F3 stable cell line (P00533 with tags, fused parts or gaps DUP767-769): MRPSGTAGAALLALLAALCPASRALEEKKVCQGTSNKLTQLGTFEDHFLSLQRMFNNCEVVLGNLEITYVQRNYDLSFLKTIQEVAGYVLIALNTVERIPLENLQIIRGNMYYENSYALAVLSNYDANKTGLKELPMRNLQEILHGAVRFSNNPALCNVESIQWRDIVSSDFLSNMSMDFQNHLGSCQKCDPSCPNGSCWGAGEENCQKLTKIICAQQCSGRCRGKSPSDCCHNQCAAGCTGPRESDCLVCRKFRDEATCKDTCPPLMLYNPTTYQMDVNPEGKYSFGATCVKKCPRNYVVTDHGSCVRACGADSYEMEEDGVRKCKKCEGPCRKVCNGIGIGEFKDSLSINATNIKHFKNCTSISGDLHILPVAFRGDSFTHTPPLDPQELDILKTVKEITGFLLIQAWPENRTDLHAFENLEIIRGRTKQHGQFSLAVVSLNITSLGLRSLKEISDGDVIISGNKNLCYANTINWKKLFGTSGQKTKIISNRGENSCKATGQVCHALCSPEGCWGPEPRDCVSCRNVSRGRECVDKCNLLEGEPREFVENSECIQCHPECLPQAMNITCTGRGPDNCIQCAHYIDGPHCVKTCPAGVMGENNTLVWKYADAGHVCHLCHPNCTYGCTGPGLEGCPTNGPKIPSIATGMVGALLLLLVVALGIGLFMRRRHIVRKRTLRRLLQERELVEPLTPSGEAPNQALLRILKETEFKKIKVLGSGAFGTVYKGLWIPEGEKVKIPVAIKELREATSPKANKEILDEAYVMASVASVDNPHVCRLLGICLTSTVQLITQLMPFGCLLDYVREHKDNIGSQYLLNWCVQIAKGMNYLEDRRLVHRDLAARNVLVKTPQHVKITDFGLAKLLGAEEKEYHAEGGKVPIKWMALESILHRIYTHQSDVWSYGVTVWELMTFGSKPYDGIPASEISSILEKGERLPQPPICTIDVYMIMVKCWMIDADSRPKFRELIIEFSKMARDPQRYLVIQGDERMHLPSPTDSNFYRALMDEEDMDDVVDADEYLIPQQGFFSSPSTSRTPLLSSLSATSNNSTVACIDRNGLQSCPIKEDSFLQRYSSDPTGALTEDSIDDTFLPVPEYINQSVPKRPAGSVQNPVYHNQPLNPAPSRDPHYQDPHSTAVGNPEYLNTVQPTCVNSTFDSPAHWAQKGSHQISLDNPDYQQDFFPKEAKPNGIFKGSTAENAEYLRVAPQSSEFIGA
Sequence of HER2 (A775_G776insYVMA) expressing Ba/F3 stable cell line (P04626 with tags, fused parts or gaps DUP772-775): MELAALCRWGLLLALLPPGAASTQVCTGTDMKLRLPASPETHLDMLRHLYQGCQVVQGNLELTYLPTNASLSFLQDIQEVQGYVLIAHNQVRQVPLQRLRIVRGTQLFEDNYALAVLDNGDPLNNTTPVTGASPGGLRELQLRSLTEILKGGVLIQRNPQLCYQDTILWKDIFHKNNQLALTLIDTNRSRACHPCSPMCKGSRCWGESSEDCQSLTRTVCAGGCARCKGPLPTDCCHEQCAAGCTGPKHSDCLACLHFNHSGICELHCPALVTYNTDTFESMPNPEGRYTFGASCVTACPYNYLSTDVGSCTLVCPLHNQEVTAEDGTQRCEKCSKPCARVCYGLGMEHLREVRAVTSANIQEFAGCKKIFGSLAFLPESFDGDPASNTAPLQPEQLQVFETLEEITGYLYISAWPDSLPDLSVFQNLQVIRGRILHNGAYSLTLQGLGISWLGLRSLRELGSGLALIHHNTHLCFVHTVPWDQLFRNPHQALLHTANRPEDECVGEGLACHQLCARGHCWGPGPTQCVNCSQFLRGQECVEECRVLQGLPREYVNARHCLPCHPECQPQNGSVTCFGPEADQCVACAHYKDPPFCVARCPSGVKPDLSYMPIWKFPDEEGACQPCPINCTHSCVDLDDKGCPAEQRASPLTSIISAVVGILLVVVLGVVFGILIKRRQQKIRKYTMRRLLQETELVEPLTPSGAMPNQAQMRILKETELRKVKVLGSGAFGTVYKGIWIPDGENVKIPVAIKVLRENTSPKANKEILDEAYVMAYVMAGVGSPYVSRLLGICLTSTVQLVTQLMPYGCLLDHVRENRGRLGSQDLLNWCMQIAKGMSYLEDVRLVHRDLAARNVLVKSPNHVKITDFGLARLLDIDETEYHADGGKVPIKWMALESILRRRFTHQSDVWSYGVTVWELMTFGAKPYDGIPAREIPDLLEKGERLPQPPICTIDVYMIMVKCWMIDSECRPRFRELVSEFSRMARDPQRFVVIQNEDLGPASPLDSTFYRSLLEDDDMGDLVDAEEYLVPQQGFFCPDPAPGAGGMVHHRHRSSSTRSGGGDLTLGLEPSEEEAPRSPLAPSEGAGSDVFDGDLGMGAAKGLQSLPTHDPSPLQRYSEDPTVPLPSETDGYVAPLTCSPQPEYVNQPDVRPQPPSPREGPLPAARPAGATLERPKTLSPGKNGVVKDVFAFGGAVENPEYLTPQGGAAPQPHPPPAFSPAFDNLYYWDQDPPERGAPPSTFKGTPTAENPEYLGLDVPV
Sequence of EGFR (H773insNPH) expressing Ba/F3 stable cell line (P00533 with tags, fused parts or gaps DUP771-773): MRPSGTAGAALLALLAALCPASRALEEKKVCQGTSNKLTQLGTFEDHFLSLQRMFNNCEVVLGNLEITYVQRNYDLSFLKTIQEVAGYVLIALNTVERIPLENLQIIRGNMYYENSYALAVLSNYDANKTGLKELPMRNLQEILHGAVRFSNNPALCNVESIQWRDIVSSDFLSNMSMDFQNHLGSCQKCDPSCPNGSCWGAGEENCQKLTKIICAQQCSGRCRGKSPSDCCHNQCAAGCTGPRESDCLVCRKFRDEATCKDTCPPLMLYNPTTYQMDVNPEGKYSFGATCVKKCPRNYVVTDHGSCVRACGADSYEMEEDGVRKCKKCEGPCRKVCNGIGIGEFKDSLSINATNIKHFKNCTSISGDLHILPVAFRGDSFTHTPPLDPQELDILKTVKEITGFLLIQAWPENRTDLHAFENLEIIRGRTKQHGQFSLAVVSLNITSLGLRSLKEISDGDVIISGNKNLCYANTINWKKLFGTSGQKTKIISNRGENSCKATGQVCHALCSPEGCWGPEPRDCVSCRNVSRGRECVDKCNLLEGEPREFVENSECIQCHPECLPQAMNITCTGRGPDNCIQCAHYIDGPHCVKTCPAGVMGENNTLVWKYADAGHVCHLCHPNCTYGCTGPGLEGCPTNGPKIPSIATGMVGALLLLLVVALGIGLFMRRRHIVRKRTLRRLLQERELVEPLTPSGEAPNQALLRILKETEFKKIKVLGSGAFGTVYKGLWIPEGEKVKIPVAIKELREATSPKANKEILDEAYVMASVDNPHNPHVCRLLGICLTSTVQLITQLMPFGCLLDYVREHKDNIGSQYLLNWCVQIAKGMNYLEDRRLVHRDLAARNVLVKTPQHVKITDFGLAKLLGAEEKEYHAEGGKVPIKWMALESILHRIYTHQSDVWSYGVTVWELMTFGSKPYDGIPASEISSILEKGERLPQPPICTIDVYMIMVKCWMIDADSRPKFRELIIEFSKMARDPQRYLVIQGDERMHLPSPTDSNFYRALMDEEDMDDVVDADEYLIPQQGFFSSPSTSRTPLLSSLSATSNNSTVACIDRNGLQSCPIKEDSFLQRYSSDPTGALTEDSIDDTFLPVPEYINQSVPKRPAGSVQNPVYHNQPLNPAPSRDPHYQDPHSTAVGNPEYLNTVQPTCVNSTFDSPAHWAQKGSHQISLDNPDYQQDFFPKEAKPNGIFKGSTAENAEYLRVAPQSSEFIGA

Broadly, the IC50 is the concentration that inhibits the measured activity by half. With `C=CC(=O)Nc1ccc(F)c(Nc2nc(Nc3cnn(C4COC4)c3)ncc2-c2ccc(F)c(Cl)c2)c1` [Compound 53, N-(3-((5-(3-chloro-4-fluorophenyl)-2-((1-(oxetan-3-yl)-1H-pyrazol-4-yl)amino)pyrimidin-4-yl)amino)-4-fluorophenyl)acrylamide], the GI50 is 104 nM in test [1] (72 hr, read-out: D770 IC50); 119 nM in test [2] (72 hr, read-out: A767 IC50); 153 nM in test [4] (72 hr, read-out: NPH IC50); 211 nM in test [5] (setting [6]). The half-inhibitory concentration (IC50) in test [3] (A431 cells, 72 hr, Alamar Blue) came to 1220 nM.

For `C=CC(=O)Nc1ccc(F)c(Nc2nc(Nc3cnn(C4COC4)c3)ncc2-c2ccc(Cl)c(Cl)c2)c1` [Compound 56, N-(3-((5-(3,4-dichlorophenyl)-2-((1-(oxetan-3-yl)-1H-pyrazol-4-yl)amino)pyrimidin-4-yl)amino)-4-fluorophenyl)acrylamide], the GI50 in test [1] (72 hr, read-out: D770 IC50) worked out at 104 nM; in test [2] (72 hr, read-out: A767 IC50), 95 nM; in test [4] (72 hr, read-out: NPH IC50), 84 nM; in test [5] (setting [6]) it was 118 nM. Moreover, the IC50 in test [3] (A431 cells, 72 hr, Alamar Blue) came out at 587 nM.

Turning to `C=CC(=O)Nc1ccc(F)c(Nc2nc(Nc3cnn(CCN(C)C)c3)ncc2-c2ccc(F)c(Cl)c2)c1` [Compound 57, N-(3-((5-(3-chloro-4-fluorophenyl)-2-((1-(2-(dimethylamino)ethyl)-1H-pyrazol-4-yl)amino)pyrimidin-4-yl)amino)-4-fluorophenyl)acrylamide], the GI50 amounted to 111 nM in test [1] (read-out: D770 IC50, 72 hr); 207 nM in test [2] (read-out: A767 IC50, 72 hr); 62 nM in test [4] (read-out: NPH IC50, 72 hr); 112 nM in test [5] (her2 (a775_g776insyvma) expressing ba/f3 stable cell line). The IC50 in test [3] came out at 699 nM.

Take `C=CC(=O)Nc1ccc(F)c(Nc2nc(Nc3cnn(CCN(C)C)c3)ncc2-c2ccc(Cl)c(Cl)c2)c1` [Compound 58, N-(3-((5-(3,4-dichlorophenyl)-2-((1-(2-(dimethylamino)ethyl)-1H-pyrazol-4-yl)amino)pyrimidin-4-yl)amino)-4-fluorophenyl)acrylamide]: the GI50 was 130 nM in test [1] (72 hr, read-out: D770 IC50); 257 nM in test [2] (72 hr, read-out: A767 IC50); 214 nM in test [4] (72 hr, read-out: NPH IC50); 100 nM in test [5] (setting [6]). Further, the IC50 in test [3] (A431 cells, 72 hr, Alamar Blue) is 85 nM.

`C=CC(=O)Nc1ccc(F)c(Nc2nc(Nc3cnn(C)c3)ncc2-c2ccc(CN(C)C)c(F)c2)c1` [Compound 60, N-(3-((5-(4-((dimethylamino)methyl)-3-fluorophenyl)-2-((1-methyl-1H-pyrazol-4-yl)amino)pyrimidin-4-yl)amino)-4-fluorophenyl)acrylamide]: the GI50 in test [1] (72 hr, read-out: D770 IC50) is 170 nM; in test [2] (72 hr, read-out: A767 IC50), 150 nM; in test [4] (72 hr, read-out: NPH IC50), 462 nM; in test [5] (setting [6]), 952 nM. The half-inhibitory concentration (IC50) in test [3] (A431 cells, 72 hr, Alamar Blue) amounted to 1180 nM.

For `C=CC(=O)Nc1ccc(F)c(Nc2nc(Nc3cnn(CCO)c3)ncc2-c2ccc(F)c(Cl)c2)c1` [Compound 62, N-(3-((5-(3-chloro-4-fluorophenyl)-2-((1-(2-hydroxyethyl)-1H-pyrazol-4-yl)amino)pyrimidin-4-yl)amino)-4-fluorophenyl)acrylamide], the GI50 in test [1] (72 hr, read-out: D770 IC50) is 75 nM; in test [2] (72 hr, read-out: A767 IC50), 80 nM; in test [4] (72 hr, read-out: NPH IC50), 91 nM; in test [5] (setting [6]) it was 103 nM. In addition, the IC50 in test [3] (A431 cells, 72 hr, Alamar Blue) is 1000 nM.

Consider `C=CC(=O)Nc1ccc(F)c(Nc2nc(Nc3cnn(C)c3)ncc2-c2cc(C)cc(F)c2)c1` [Compound 64, N-(4-fluoro-3-((5-(3-fluoro-5-methylphenyl)-2-((1-methyl-1H-pyrazol-4-yl)amino)pyrimidin-4-yl)amino)phenyl)acrylamide], for which the GI50 in test [1] (72 hr, read-out: D770 IC50) came to 61 nM; in test [2] (72 hr, read-out: A767 IC50), 104 nM; in test [4] (72 hr, read-out: NPH IC50) it was 95 nM; in test [5] (setting [6]), 159 nM. For the same compound, the half-maximal inhibitory concentration (IC50) in test [3] (A431 cells, 72 hr, Alamar Blue) came out at 554 nM.

Take `C=CC(=O)Nc1ccc(F)c(Nc2nc(Nc3cnn(C)c3)ncc2-c2cc(F)cc(OC)c2)c1` [Compound 65, N-(4-fluoro-3-{[5-(3-fluoro-5-methoxyphenyl)-2-[(1-methyl-1H-pyrazol-4-yl)amino]pyrimidin-4-yl]amino}phenyl)prop-2-enamide]: the GI50 is 114 nM in test [1] (72 hr, read-out: D770 IC50); 226 nM in test [2] (72 hr, read-out: A767 IC50); 304 nM in test [4] (72 hr, read-out: NPH IC50); 112 nM in test [5] (setting [6]). Also, the IC50 in test [3] (A431 cells, 72 hr, Alamar Blue) was 1070 nM.

For the compound `C=CC(=O)Nc1cccc(Nc2nc(Nc3cnn(C)c3)ncc2-c2cc(F)cc(Cl)c2)c1` [Compound 66, N-(3-((5-(3-chloro-5-fluorophenyl)-2-((1-methyl-1H-pyrazol-4-yl)amino)pyrimidin-4-yl)amino)phenyl)acrylamide], the GI50 in test [1] (72 hr, read-out: D770 IC50) was 15 nM; in test [2] (72 hr, read-out: A767 IC50), 26 nM; in test [4] (72 hr, read-out: NPH IC50) it was 14 nM; in test [5] (setting [6]), 47 nM. Further, the 50% inhibitory concentration (IC50) in test [3] (A431 cells, 72 hr, Alamar Blue) was found to be 55 nM.

On to `C=CC(=O)Nc1cccc(Nc2nc(Nc3cnn(C)c3)ncc2-c2ccc(F)c(F)c2)c1` [Compound 67, N-(3-((5-(3,4-difluorophenyl)-2-((1-methyl-1H-pyrazol-4-yl)amino)pyrimidin-4-yl)amino)phenyl)acrylamide], for which the GI50 in test [1] (72 hr, read-out: D770 IC50) is 36 nM; in test [2] (72 hr, read-out: A767 IC50), 41 nM; in test [4] (72 hr, read-out: NPH IC50), 100 nM; in test [5] (setting [6]), 60 nM. Moreover, the IC50 in test [3] (A431 cells, 72 hr, Alamar Blue) came out at 213 nM.

Turning to `C=CC(=O)Nc1ccc(F)c(Nc2nc(Nc3cnn(C)c3)ncc2-c2ccc(N3CCOCC3)c(F)c2)c1` [Compound 76, N-[4-fluoro-3-({5-[3-fluoro-4-(morpholin-4-yl)phenyl]-2-[(1-methyl-1H-pyrazol-4-yl)amino]pyrimidin-4-yl}amino)phenyl]prop-2-enamide], the GI50 in test [1] (72 hr, read-out: D770 IC50) is 220 nM; in test [2] (72 hr, read-out: A767 IC50), 72 nM; in test [4] (72 hr, read-out: NPH IC50), 236 nM; in test [5] (setting [6]), 240 nM. The IC50 in test [3] (A431 cells, 72 hr, Alamar Blue) amounted to 1260 nM.

Consider `C=CC(=O)Nc1ccc(F)c(Nc2nc(Nc3cnn(C)c3)ncc2-c2ccc(N3CCCC3)c(F)c2)c1` [Compound 77, N-(4-fluoro-3-((5-(3-fluoro-4-(pyrrolidin-1-yl)phenyl)-2-((1-methyl-1H-pyrazol-4-yl)amino)pyrimidin-4-yl)amino)phenyl)acrylamide], for which the GI50 in test [1] (72 hr, read-out: D770 IC50) was found to be 340 nM; in test [2] (72 hr, read-out: A767 IC50), 113 nM; in test [4] (72 hr, read-out: NPH IC50) it was 353 nM; in test [5] (setting [6]) it was 584 nM. For the same compound, the half-inhibitory concentration (IC50) in test [3] (A431 cells, 72 hr, Alamar Blue) is 297 nM.

With `C=CC(=O)Nc1ccc(F)c(Nc2nc(Nc3cnn(C)c3)ncc2-c2ccc(N3CCCCC3)c(F)c2)c1` [Compound 78, N-(4-fluoro-3-((5-(3-fluoro-4-(piperidin-1-yl)phenyl)-2-((1-methyl-1H-pyrazol-4-yl)amino)pyrimidin-4-yl)amino)phenyl)acrylamide], the GI50 in test [1] (72 hr, read-out: D770 IC50) worked out at 111 nM; in test [2] (72 hr, read-out: A767 IC50) it was 59 nM; in test [4] (72 hr, read-out: NPH IC50), 144 nM; in test [5] (setting [6]) it was 286 nM. Also, in test [3] (A431 cells, 72 hr, Alamar Blue), the half-inhibitory concentration (IC50) turned out to be 102 nM.

Take `C=CC(=O)Nc1ccc(F)c(Nc2nc(Nc3cnn(C)c3)ncc2-c2ccc(Br)c(Cl)c2)c1` [Compound 88, N-(3-((5-(4-bromo-3-chlorophenyl)-2-((1-methyl-1H-pyrazol-4-yl)amino)pyrimidin-4-yl)amino)-4-fluorophenyl)acrylamide]: the GI50 came out at 66 nM in test [1] (72 hr, read-out: D770 IC50); 87 nM in test [2] (72 hr, read-out: A767 IC50); 57 nM in test [4] (72 hr, read-out: NPH IC50); 118 nM in test [5] (setting [6]). Moreover, the concentration for half-maximal inhibition (IC50) in test [3] (A431 cells, 72 hr, Alamar Blue) was found to be 280 nM.

In the case of `C=CC(=O)Nc1ccc(F)c(Nc2nc(Nc3cnn(CCN(C)C)c3)ncc2-c2ccc(Br)c(Cl)c2)c1` [Compound 89, N-(3-((5-(4-bromo-3-chlorophenyl)-2-((1-(2-(dimethylamino)ethyl)-1H-pyrazol-4-yl)amino)pyrimidin-4-yl)amino)-4-fluorophenyl)acrylamide], the GI50 came out at 102 nM in test [1] (72 hr, read-out: D770 IC50); 108 nM in test [2] (72 hr, read-out: A767 IC50); 56 nM in test [4] (72 hr, read-out: NPH IC50); 123 nM in test [5] (setting [6]). In addition, in test [3] (A431 cells, 72 hr, Alamar Blue), the IC50 came out at 343 nM.
